Experimental data from ChEMBL document CHEMBL3639005, “SGLT-2 inhibitors, methods of making them, and uses thereof” (2013).

Key:
[1] = biological target: T1, Sodium/glucose cotransporter 1 (Homo sapiens, UniProt P13866); assay: (§1) In Vitro Assay: The inhibitory activity of the compounds of this invention against the SGLT-1 or SGLT-2 transporters.
T1 sequence (P13866 whole entry): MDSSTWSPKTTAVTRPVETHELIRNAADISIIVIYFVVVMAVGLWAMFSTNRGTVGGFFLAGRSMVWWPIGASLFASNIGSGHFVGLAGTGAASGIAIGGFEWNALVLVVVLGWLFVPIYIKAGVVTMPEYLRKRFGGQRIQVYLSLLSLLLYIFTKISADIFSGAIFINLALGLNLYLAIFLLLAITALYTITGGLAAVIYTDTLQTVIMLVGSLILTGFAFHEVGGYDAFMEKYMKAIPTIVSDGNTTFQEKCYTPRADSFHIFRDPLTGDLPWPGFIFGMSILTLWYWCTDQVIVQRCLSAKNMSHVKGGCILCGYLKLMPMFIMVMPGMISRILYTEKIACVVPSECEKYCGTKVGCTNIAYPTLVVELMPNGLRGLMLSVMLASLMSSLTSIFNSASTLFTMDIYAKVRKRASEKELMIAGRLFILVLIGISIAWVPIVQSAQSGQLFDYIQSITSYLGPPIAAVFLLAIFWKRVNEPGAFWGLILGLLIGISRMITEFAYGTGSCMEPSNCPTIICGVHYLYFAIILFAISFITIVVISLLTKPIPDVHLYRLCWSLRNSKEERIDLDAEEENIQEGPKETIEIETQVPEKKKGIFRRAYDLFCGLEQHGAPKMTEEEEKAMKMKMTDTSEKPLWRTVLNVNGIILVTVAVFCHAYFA

[2] = biological target: T2, Sodium/glucose cotransporter 2 (Homo sapiens, UniProt P31639); assay: as §1
T2 sequence (P31639 whole entry): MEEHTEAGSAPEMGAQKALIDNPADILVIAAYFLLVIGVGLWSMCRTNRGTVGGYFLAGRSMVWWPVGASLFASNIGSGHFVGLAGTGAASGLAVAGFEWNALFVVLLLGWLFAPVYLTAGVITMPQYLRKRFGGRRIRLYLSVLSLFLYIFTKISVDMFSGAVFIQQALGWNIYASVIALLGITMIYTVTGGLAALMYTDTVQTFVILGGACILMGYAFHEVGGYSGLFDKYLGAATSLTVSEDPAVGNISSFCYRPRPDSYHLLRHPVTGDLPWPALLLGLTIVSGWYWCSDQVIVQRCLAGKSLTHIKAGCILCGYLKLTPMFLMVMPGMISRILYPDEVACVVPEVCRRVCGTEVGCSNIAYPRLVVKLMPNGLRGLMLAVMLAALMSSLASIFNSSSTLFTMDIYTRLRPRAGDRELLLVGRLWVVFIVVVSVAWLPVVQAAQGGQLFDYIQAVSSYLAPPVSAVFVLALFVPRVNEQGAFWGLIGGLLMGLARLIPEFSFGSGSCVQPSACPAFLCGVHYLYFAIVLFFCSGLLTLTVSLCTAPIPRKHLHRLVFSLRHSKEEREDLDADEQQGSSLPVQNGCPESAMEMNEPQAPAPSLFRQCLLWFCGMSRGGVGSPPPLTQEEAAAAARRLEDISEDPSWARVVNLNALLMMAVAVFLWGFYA

Row | IC50 [1] | IC50 [2] | Compound
1 | > 90 µM | 91 nM | O=c1n(Cc2cc([C@@H]3O[C@H](CO)[C@@H](O)[C@H](O)[C@H]3O)ccc2Cl)nc2cc(Cl)ccn12
2 | > 90 µM | 223 nM | N#CC1(c2ccc3nn(Cc4cc([C@@H]5O[C@H](CO)[C@@H](O)[C@H](O)[C@H]5O)ccc4Cl)c(=O)n3c2)CC1
